Five compounds from patent US10010614B2, “Derivatives of GLP-1 like peptides, and uses thereof” (Novo Nordisk A/S, priority 2013, dated 2018) can be followed below.

A short description of data set [1]: Pharmacokinetic study in minipigs (i.v.). The conditions noted are these: male, Göttingen, minipig, plasma, iv; read-out: Terminal half-live (converted). The format is in vivo. As for the experimental part: The purpose of this study is to determine the protraction in vivo of the GLP-1 derivatives after i.v. administration to minipigs, i.e. the prolongation of their time in the body and thereby their time of action. This is done in a pharmacokinetic (PK) study, where the terminal half-life of the derivative in question is determined. By terminal half-life is meant the time it takes to halve a certain plasma concentration in the terminal elimination phase.
The derivatives of Examples 1-5 were dosed with 2 nmol/kg, the derivative of Example 6 was dosed with 5 nmol/kg, and the derivatives of Examples 7-9 were dosed with 15 nmol/kg.
Male Göttingen minipigs were obtained from Ellegaard Göttingen Minipigs (Dalmose, Denmark) approximately 7-14 months of age and weighing approximately 16-35 kg were used in the studies. The minipigs were housed either individually (pigs with permanent catheters) or in a group and fed restrictedly once or twice daily with SDS minipig diet (Special Diets Services, Essex, UK).
After at least 2 weeks of acclimatisation two permanent central venous catheters were implanted in vena cava caudalis or cranialis in each animal. The animals were allowed 1 week recovery after the surgery, and were then used for repeated pharmacokinetic studies with a suitable wash-out period between successive GLP-1 derivative dosings.
The GLP-1 derivatives were dissolved in 50 mM sodium phosphate, 70-145 mM sodium chloride, 0.05% tween 80, pH 7.4 to a concentration of usually from 20-60 nmol/ml.
Intravenous injections (the volume corresponding to for example 0.050-0.125 ml/kg) of the compounds were given through one catheter or through the venflon, and blood was sampled at predefined time points for up till 25 days post dosing (preferably through the other catheter or by venipuncture). Blood samples (for example 0.8 ml) were collected in EDTA buffer (8 mM) and then centrifuged at 4° C. and 1942G for 10 minutes.
Plasma was pipetted into Micronic tubes on dry ice, and kept at −20° C. until analysed for plasma concentration of the respective GLP-1 compound using LOCI. Individual plasma concentration-time profiles were analyzed by a non-compartmental pharmacokinetic method in Phoenix v. 6.2 (Pharsight Inc., Mountain View, Calif., USA), or other relevant software for PK analysis, and the resulting terminal half-lives (harmonic mean) determined.

Data set [2] deals with T1, human GLP-1 receptor (Homo sapiens, UniProt P43220).
T1 construct: expressed in transfected cells; host or cells: membranes prepared from BHK cells (parent line BHKTS13), clone FCW467-12A
Put plainly: In vitro potency, CRE luciferase reporter gene assay in BHK cells expressing the human GLP-1 receptor. The format is cell-based. Conditions: whole cell reporter gene assay, 3 h incubation, no HSA, averages of at least two replicates. In outline:
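Stably transfected BHK cells (5×10^3/well) expressing human GLP-1R with a CRE-luciferase reporter; compounds diluted in buffer with 2% ovalbumin and 0.2% Pluronic F-68, final 1×10^−7 to 1×10^−14 M. Incubated 3 h at 37 °C, 5% CO2, then luminescence read; potency from non-linear log(agonist)–response fit, mean of ≥2 replicates.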

Data set [3] addresses T1, human GLP-1 receptor. The data set is described as follows: GLP-1 receptor binding, competitive binding assay (125I-GLP-1, SPA) on isolated membranes.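 Also: test compounds added at a range of concentrations to membranes from cells expressing the human GLP-1 receptor, scored by displacement of labelled ligand, read with WGA SPA beads.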
[4] abbreviates: High HSA IC50 (nM), high serum albumin (2.0% HSA final assay concentration).
The mark [5] stands for this setting: Low HSA IC50 (nM), low serum albumin (max. 0.001% final assay concentration).

Where two headings read alike, the source gives them in different places. Numbered stars: 1 amine (or outer) side, 2 acyl side, 3 side chain; on linkers, the order of the positions; unused ones are H or OH. Square brackets hold non-standard residues; d marks the D form. Side chains are listed from the residue outwards. Peptide text beside a SMILES is read from it. * marks the point of attachment. X1 = O=C(O)CCCCCCCCCCCCCCCCCCC(=O)NCC1CCC(C(=O)*)CC1; C20 diacid = O=C(O)CCCCCCCCCCCCCCCCCCC(=O)*; γGlu = O=C(O)[C@H](CCC(=O)[*:2])N[*:1]; εLys = N[C@@H](CCCCN[*:1])C(=O)[*:2]; Trx = NC[C@H]1CC[C@H](C(=O)O)CC1; AEEA = NCCOCCOCC(=O)O; Aib = CC(C)(N)C(=O)O

T1 sequence (P43220 24-463): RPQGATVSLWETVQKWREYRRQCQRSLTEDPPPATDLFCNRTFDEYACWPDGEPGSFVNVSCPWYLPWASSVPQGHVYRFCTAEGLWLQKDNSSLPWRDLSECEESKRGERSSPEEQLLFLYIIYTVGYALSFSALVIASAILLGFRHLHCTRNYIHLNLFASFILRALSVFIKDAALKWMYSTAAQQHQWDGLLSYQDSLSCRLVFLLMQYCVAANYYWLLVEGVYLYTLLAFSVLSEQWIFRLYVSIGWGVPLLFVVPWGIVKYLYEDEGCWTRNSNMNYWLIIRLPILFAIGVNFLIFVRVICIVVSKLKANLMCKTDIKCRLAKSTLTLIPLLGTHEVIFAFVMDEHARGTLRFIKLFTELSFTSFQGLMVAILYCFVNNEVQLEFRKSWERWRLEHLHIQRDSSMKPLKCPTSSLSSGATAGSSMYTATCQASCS

As to `CC[C@H](C)[C@H](NC(=O)[C@H](Cc1ccccc1)NC(=O)[C@H](CCCCNC(=O)COCCOCCNC(=O)COCCOCCNC(=O)CC[C@H](NC(=O)C1CCC(CNC(=O)CCCCCCCCCCCCCCCCCCC(=O)O)CC1)C(=O)O)NC(=O)[C@H](CCCNC(=N)N)NC(=O)[C@H](C)NC(=O)[C@H](C)NC(=O)[C@H](CCC(N)=O)NC(=O)[C@H](CCC(=O)O)NC(=O)[C@H](CCC(=O)O)NC(=O)[C@H](CC(C)C)NC(=O)[C@H](Cc1ccc(O)cc1)NC(=O)[C@H](CO)NC(=O)[C@H](CO)NC(=O)[C@@H](NC(=O)[C@H](CC(=O)O)NC(=O)[C@H](CO)NC(=O)[C@@H](NC(=O)[C@H](Cc1ccccc1)NC(=O)[C@@H](NC(=O)CNC(=O)[C@H](CCC(=O)O)NC(=O)C(C)(C)NC(=O)[C@@H](N)Cc1c[nH]cn1)[C@@H](C)O)[C@@H](C)O)C(C)C)C(=O)N[C@@H](C)C(=O)N[C@@H](Cc1c[nH]c2ccccc12)C(=O)N[C@@H](CC(C)C)C(=O)N[C@H](C(=O)N[C@@H](CCCNC(=N)N)C(=O)NCC(=O)N[C@@H](CCCNC(=N)N)C(=O)NCC(=O)NCC(=O)NCC(=O)NCC(=O)N[C@@H](CO)C(=O)N[C@@H](CCCCNC(=O)COCCOCCNC(=O)COCCOCCNC(=O)CC[C@H](NC(=O)C1CCC(CNC(=O)CCCCCCCCCCCCCCCCCCC(=O)O)CC1)C(=O)O)C(=O)O)C(C)C` (some centres unmarked) [Example 1] (H-H[Aib]EGTFTSDVSSYLEEQAARK([AEEA-AEEA-γGlu-X1])FIAWLVRGRGGGGSK([AEEA-AEEA-γGlu-X1])-OH; N-terminus and C-terminus assumed), the half-life in data set [1] is 121 h.

Regarding `CC[C@H](C)[C@H](NC(=O)[C@H](Cc1ccccc1)NC(=O)[C@H](CCC(=O)O)NC(=O)[C@H](CCCNC(=N)N)NC(=O)[C@H](C)NC(=O)[C@H](C)NC(=O)[C@H](CCC(N)=O)NC(=O)[C@H](CCC(=O)O)NC(=O)[C@H](CCC(=O)O)NC(=O)[C@H](CC(C)C)NC(=O)[C@H](Cc1ccc(O)cc1)NC(=O)[C@H](CO)NC(=O)[C@H](CO)NC(=O)[C@@H](NC(=O)[C@H](CC(=O)O)NC(=O)[C@H](CO)NC(=O)[C@@H](NC(=O)[C@H](Cc1ccccc1)NC(=O)[C@@H](NC(=O)CNC(=O)[C@H](CCC(=O)O)NC(=O)C(C)(C)NC(=O)[C@@H](N)Cc1c[nH]cn1)[C@@H](C)O)[C@@H](C)O)C(C)C)C(=O)N[C@@H](C)C(=O)N[C@@H](Cc1c[nH]c2ccccc12)C(=O)N[C@@H](CC(C)C)C(=O)N[C@H](C(=O)N[C@@H](CCCNC(=N)N)C(=O)NCC(=O)N[C@@H](CCCCNC(=O)COCCOCCNC(=O)COCCOCCNC(=O)CC[C@H](NC(=O)C1CCC(CNC(=O)CCCCCCCCCCCCCCCCCCC(=O)O)CC1)C(=O)O)C(=O)NCC(=O)NCC(=O)NCC(=O)NCC(=O)N[C@@H](CO)C(=O)N[C@@H](CCCCNC(=O)COCCOCCNC(=O)COCCOCCNC(=O)CC[C@H](NC(=O)C1CCC(CNC(=O)CCCCCCCCCCCCCCCCCCC(=O)O)CC1)C(=O)O)C(=O)O)C(C)C` (some centres unmarked) [Example 5] (H-H[Aib]EGTFTSDVSSYLEEQAAREFIAWLVRGK([AEEA-AEEA-γGlu-X1])GGGGSK([AEEA-AEEA-γGlu-X1])-OH; N-terminus and C-terminus assumed), in data set [1], the half-life was 131 h.

In turn, `CC[C@H](C)[C@H](NC(=O)[C@H](Cc1ccccc1)NC(=O)[C@H](CCC(=O)O)NC(=O)[C@H](CCCNC(=N)N)NC(=O)[C@H](C)NC(=O)[C@H](C)NC(=O)[C@H](CCC(N)=O)NC(=O)[C@H](CCC(=O)O)NC(=O)[C@H](CCC(=O)O)NC(=O)[C@H](CC(C)C)NC(=O)[C@H](Cc1ccc(O)cc1)NC(=O)[C@H](CO)NC(=O)[C@H](CO)NC(=O)[C@@H](NC(=O)[C@H](CC(=O)O)NC(=O)[C@H](CO)NC(=O)[C@@H](NC(=O)[C@H](Cc1ccccc1)NC(=O)[C@@H](NC(=O)CNC(=O)[C@H](CCC(=O)O)NC(=O)C(C)(C)NC(=O)[C@@H](N)Cc1c[nH]cn1)[C@@H](C)O)[C@@H](C)O)C(C)C)C(=O)N[C@@H](C)C(=O)N[C@@H](Cc1c[nH]c2ccccc12)C(=O)N[C@@H](CC(C)C)C(=O)N[C@H](C(=O)N[C@@H](CCCNC(=N)N)C(=O)NCC(=O)N[C@@H](CCCNC(=N)N)C(=O)NCC(=O)N[C@@H](CCCCNC(=O)COCCOCCNC(=O)COCCOCCNC(=O)COCCOCCNC(=O)COCCOCCNC(=O)COCCOCCNC(=O)[C@@H](N)CCCCNC(=O)[C@@H](N)CCCCNC(=O)CCCCCCCCCCCCCCCCCCC(=O)O)C(=O)NCC(=O)NCC(=O)N[C@@H](CO)C(=O)N[C@@H](CCCCNC(=O)COCCOCCNC(=O)COCCOCCNC(=O)COCCOCCNC(=O)COCCOCCNC(=O)COCCOCCNC(=O)[C@@H](N)CCCCNC(=O)[C@@H](N)CCCCNC(=O)CCCCCCCCCCCCCCCCCCC(=O)O)C(=O)O)C(C)C` [Example 27] (H-H[Aib]EGTFTSDVSSYLEEQAAREFIAWLVRGRGK([AEEA-AEEA-AEEA-AEEA-AEEA-εLys-εLys-C20 diacid])GGSK([AEEA-AEEA-AEEA-AEEA-AEEA-εLys-εLys-C20 diacid])-OH; N-terminus and C-terminus assumed) gave an EC50 on human GLP-1 receptor [2] of 0.0044 nM. Also, the IC50 at human GLP-1 receptor [3] (high serum albumin (2.0% HSA final assay concentration), read-out: High HSA IC50) came out at 30 nM; at human GLP-1 receptor [3] (low serum albumin (max. 0.001% final assay concentration), read-out: Low HSA IC50) it was 0.08 nM.

As to `CC[C@H](C)[C@H](NC(=O)[C@H](Cc1ccccc1)NC(=O)[C@H](CCC(=O)O)NC(=O)[C@H](CCCNC(=N)N)NC(=O)[C@H](C)NC(=O)[C@H](C)NC(=O)[C@H](CCC(N)=O)NC(=O)[C@H](CCC(=O)O)NC(=O)[C@H](CCC(=O)O)NC(=O)[C@H](CC(C)C)NC(=O)[C@H](Cc1ccc(O)cc1)NC(=O)[C@H](CO)NC(=O)[C@H](CO)NC(=O)[C@@H](NC(=O)[C@H](CC(=O)O)NC(=O)[C@H](CO)NC(=O)[C@@H](NC(=O)[C@H](Cc1ccccc1)NC(=O)[C@@H](NC(=O)CNC(=O)[C@H](CCC(=O)O)NC(=O)C(C)(C)NC(=O)[C@@H](N)Cc1c[nH]cn1)[C@@H](C)O)[C@@H](C)O)C(C)C)C(=O)N[C@@H](C)C(=O)N[C@@H](Cc1c[nH]c2ccccc12)C(=O)N[C@@H](CC(C)C)C(=O)N[C@H](C(=O)N[C@@H](CCCNC(=N)N)C(=O)NCC(=O)N[C@@H](CCCCNC(=O)COCCOCCNC(=O)COCCOCCNC(=O)CC[C@H](NC(=O)[C@H]1CC[C@H](CNC(=O)CCCCCCCCCCCCCCCCCCC(=O)O)CC1)C(=O)O)C(=O)NCC(=O)N1CCC[C@H]1C(=O)N[C@@H](C)C(=O)N[C@@H](CO)C(=O)N[C@@H](CCC(=O)O)C(=O)N[C@@H](CCCCNC(=O)COCCOCCNC(=O)COCCOCCNC(=O)CC[C@H](NC(=O)[C@H]1CC[C@H](CNC(=O)CCCCCCCCCCCCCCCCCCC(=O)O)CC1)C(=O)O)C(=O)O)C(C)C` [Example 15] (H-H[Aib]EGTFTSDVSSYLEEQAAREFIAWLVRGK([AEEA-AEEA-γGlu-Trx-C20 diacid])GPASEK([AEEA-AEEA-γGlu-Trx-C20 diacid])-OH), a half-maximal response at human GLP-1 receptor [2] (EC50) required 0.02 nM. The IC50 on human GLP-1 receptor [3] (setting [4]) is 928 nM; at human GLP-1 receptor [3] (setting [5]) it was 1.6 nM.

`CC[C@H](C)[C@H](NC(=O)[C@H](Cc1ccccc1)NC(=O)[C@H](CCC(=O)O)NC(=O)[C@H](CCCNC(=N)N)NC(=O)[C@H](C)NC(=O)[C@H](C)NC(=O)[C@H](CCC(N)=O)NC(=O)[C@H](CCC(=O)O)NC(=O)[C@H](CCC(=O)O)NC(=O)[C@H](CC(C)C)NC(=O)[C@H](Cc1ccc(O)cc1)NC(=O)[C@H](CO)NC(=O)[C@H](CO)NC(=O)[C@@H](NC(=O)[C@H](CC(=O)O)NC(=O)[C@H](CO)NC(=O)[C@@H](NC(=O)[C@H](Cc1ccccc1)NC(=O)[C@@H](NC(=O)CNC(=O)[C@H](CCC(=O)O)NC(=O)C(C)(C)NC(=O)[C@@H](N)Cc1c[nH]cn1)[C@@H](C)O)[C@@H](C)O)C(C)C)C(=O)N[C@@H](C)C(=O)N[C@@H](Cc1c[nH]c2ccccc12)C(=O)N[C@@H](CC(C)C)C(=O)N[C@H](C(=O)N[C@@H](CCCNC(=N)N)C(=O)NCC(=O)N[C@@H](CCCCNC(=O)COCCOCCNC(=O)COCCOCCNC(=O)CC[C@H](NC(=O)[C@H]1CC[C@H](CNC(=O)CCCCCCCCCCCCCCCCCCC(=O)O)CC1)C(=O)O)C(=O)NCC(=O)N[C@@H](C)C(=O)N[C@@H](CCC(=O)O)C(=O)N[C@@H](CO)C(=O)N1CCC[C@H]1C(=O)N[C@@H](CCCCNC(=O)COCCOCCNC(=O)COCCOCCNC(=O)CC[C@H](NC(=O)[C@H]1CC[C@H](CNC(=O)CCCCCCCCCCCCCCCCCCC(=O)O)CC1)C(=O)O)C(=O)O)C(C)C` [Example 14] (H-H[Aib]EGTFTSDVSSYLEEQAAREFIAWLVRGK([AEEA-AEEA-γGlu-Trx-C20 diacid])GAESPK([AEEA-AEEA-γGlu-Trx-C20 diacid])-OH) showed an EC50 on human GLP-1 receptor [2] of 0.022 nM. The IC50 is 530 nM at human GLP-1 receptor [3] (setting [4]) and 1.5 nM on human GLP-1 receptor [3] (setting [5]).
